Test results taken from patent US20120022054A1, “NOVEL SUBSTITUTED ARYL DERIVATIVES, THEIR PROCESS OF PREPARATION AND THEIR THERAPEUTICAL USES AS ANTI-HIV AGENTS” (priority 2008, published 2012).
Read-outs that look alike come from different tables or passages of the source.

How the values were obtained:
[1] = system: Env-deleted NL4-3 vector virus pseudotyped with the VSV g envelope; assay: microbe, parasite or virus in culture; type: cell-based, HIV-1; details: Vesicular stomatitis virus, NL43, SUP-T1, 48 h, read-out: EC50 for antiviral activity (50% inhibition of luciferase activity)
NL4-3 strain of HIV-1 = assay: Multiple cycle infection assay of CAp24 antigen production; type: cell-based; details: Human immunodeficiency virus 1, NL43, SUP-T1, 96 h, multiple cycle infection with NL4-3 virus, SupT1, MT4 or PBMC, MOI 0.01, day 4 and day −6 post-infection, read-out: EC50 for antiviral activity (50% inhibition of CA p24 production)

Row | SMILES | EC50 [1] [µM] | EC50 (NL4-3 strain of HIV-1; threshold below 5 μM) [µM] | EC50 (NL4-3 strain of HIV-1; threshold below 500 nM) [µM]
1 | Cc1ccccc1CN(C)C(=O)CCCSc1ccc(O)cc1 [Example 37, 4-[(4-Hydroxyphenyl)thio]-N-methyl-N-(2-methylbenzyl)butanamide] | < 5 | < 5 | 
2 | COc1ccc(SCCCC(=O)N(C)Cc2cc(Cl)ccc2OC)cc1 [Example 115, N-(5-chloro-2-methoxybenzyl)-4-[(4-methoxyphenyl)thio]-N-methylbutanamide] | < 5 | < 5 | 
3 | CN(Cc1ccccc1-c1ccco1)C(=O)CCCn1ccc2cc(F)ccc21 [Example 122, 4-(5-fluoro-1H-indol-1-yl)-N-(2-(furan-2-yl)benzyl)-N-methylbutanamide] | < 5 | < 5 | 
4 | COc1ccc(-n2cccn2)c(CN(C)C(=O)CCCSc2ccc(F)cc2)c1 [Example 98, 4-[(4-fluorophenyl)thio]-N-[5-methoxy-2-(pyrazol-1-yl)benzyl]-N-methylbutanamide] | < 5 | < 5 | 
5 | CN(Cc1ccccc1OC(F)(F)F)C(=O)CCCSc1ccc(O)cc1 [Example 27, 4-[(4-hydroxyphenyl)thio]-N-methyl-N-[2-(trifluoromethoxy)benzyl]butanamide] | < 5 | < 5 | 
6 | CCOC(=O)N1CCN(c2ccccc2CN(C)C(=O)CCCSc2ccc(O)cc2)CC1 [Example 47, Ethyl 4-[2-({4-[(4-hydroxyphenyl)thio]butanoyl}methylamino)methylphenyl]-piperazine-1-carboxylate] | < 5 | < 5 | 
7 | CN(C(=O)CCCSc1ccc(F)cc1)c1cccc2cnccc12 [Example 131, 4-[(4-fluorophenyl)thio]-N-isoquinolin-5-yl-N-methylbutanamide] | < 5 | < 5 | 
8 | COc1ccc(SCCCC(=O)N(C)Cc2ccccc2OC)cc1 [Example 42, N-(2-Methoxybenzyl)-4-[(4-methoxyphenyl)thio]-N-methylbutanamide] | < 5 | < 5 | 
9 | COc1ccccc1CN(C)C(=O)CCCSc1ccc(F)c(Cl)c1 [Example 141, 4-[(3-Chloro-4-fluorophenyl)thio]-N-(2-methoxybenzyl)-N-methylbutanamide] | < 5 | < 5 | 
10 | CN(Cc1ccccc1Cl)C(=O)CCCSc1ccc(O)cc1 [Example 3, N-(2-Chlorobenzyl)-4-[(4-hydroxyphenyl)thio]-N-methylbutanamide] | < 5 | < 5 | 
11 | CN(Cc1ccccc1Cl)C(=O)CCCSc1ccc(F)cc1 [Example 14, N-(2-Chlorobenzyl)-4-[(4-fluorophenyl)thio]-N-methylbutanamide] | < 5 | < 5 | 
12 | CCOC(=O)c1cc(F)ccc1SCCCC(=O)N(C)c1cccc(OC)c1 [Example 195, Ethyl 5-fluoro-2-({4-[(3-methoxyphenyl)(methyl)amino]-4-oxobutyl}thio)benzoate] | < 5 |  | 
13 | CN(Cc1ccccc1N1CCN(CCN2CCOCC2)CC1)C(=O)CCCSc1ccc(O)cc1 [Example 53, 4-[(4-Hydroxyphenyl)thio]-N-methyl-N-{2-[4-(2-morpholin-4-ylethyl)piperazin-1-yl]benzyl}butanamide] | < 5 | < 5 | 
14 | COc1ccccc1CN(C)C(=O)CCCSc1ccc(O)cc1 [Example 35, 4-[(4-Hydroxyphenyl)thio]-N-(2-methoxybenzyl)-N-methylbutanamide] | < 5 | < 5 | 
15 | COc1ccc(SCCCC(=O)N(C)Cc2cc(C)ccc2OC)cc1 [Example 119, 4-[(4-methoxyphenyl)thio]-N-[2-methoxy-5-methylbenzyl]-N-methylbutanamide] | < 5 | < 5 | 
16 | COc1ccccc1CN(C)C(=O)CCCC(=O)c1ccc(F)cc1 [Example 56, 5-(4-Fluorophenyl)-N-(2-methoxybenzyl)-N-methyl-5-oxopentanamide] | < 5 | < 5 | 
17 | COc1ccccc1CN(C)C(=O)CCCCc1ccc(O)cc1 [Example 19, 5-(4-Hydroxyphenyl)-N-(2-methoxybenzyl)-N-methylpentanamide] | < 5 | < 5 | 
18 | COc1ccc(SCCCC(=O)N(C)Cc2cc(C)ccc2N2CCOCC2)cc1 [Example 124, 4-[(4-methoxyphenyl)thio]-N-[5-methyl-2-(morpholin-4-yl)benzyl]-N-methylbutanamide] | < 5 | < 5 | 
19 | COc1ccc(SCCCC(=O)N(C)Cc2cc(F)ccc2OC(C)C)cc1 [Example 117, N-(5-fluoro-2-isopropoxybenzyl)-4-[(4-methoxyphenyl)thio]-N-methylbutanamide] | < 5 | < 5 | 
20 | C=CCOc1ccccc1CN(C)C(=O)CCCSc1ccc(F)cc1 [Example 90, N-[2-(Allyloxy)benzyl]-4-[(4-fluorophenyl)thio]-N-methylbutanamide] | < 5 | < 5 | 

Row | SMILES | EC50 [1] [µM] | EC50 (NL4-3 strain of HIV-1; threshold below 5 μM) [µM] | EC50 (NL4-3 strain of HIV-1; threshold below 500 nM) [µM]
21 | CN1CCN(c2ccccc2CN(C)C(=O)CCCSc2ccc(O)cc2)CC1 [Example 13, 4-[(4-Hydroxyphenyl)thio]-N-methyl-N-[2-(4-methylpiperazin-1-yl)benzyl]-butanamide] | < 5 | < 5 | 
22 | COc1ccccc1CN(C)C(=O)CCCSc1cccc(O)c1 [Example 26, 4-[(3-hydroxyphenyl)thio]-N-(2-methoxybenzyl)-N-methylbutanamide] | < 5 | < 5 | 
23 | COc1ccccc1CN(C)C(=O)CCCSc1ccc2ccccc2c1 [Example 17, N-(2-Methoxybenzyl)-N-methyl-4-(2-naphthylthio)butanamide] | < 5 | < 5 | 
24 | COc1c(C)cccc1CN(C)C(=O)CCCSc1ccc(O)cc1 [Example 69, 4-[(4-Hydroxyphenyl)thio]-N-(2-methoxy-3-methylbenzyl)-N-methylbutanamide] | < 5 | < 5 | 
25 | COc1ccccc1CN(C)C(=O)CCCCSc1ccc(O)cc1 [Example 12, 5-[(4-Hydroxyphenyl)thio]-N-(2-methoxybenzyl)-N-methylpentanamide] | < 5 | < 5 | 
26 | COc1c(Cl)cc(Cl)cc1CN(C)C(=O)CCCSc1ccc(O)cc1 [Example 74, N-(3,5-Dichloro-2-methoxybenzyl)-4-[(4-hydroxyphenyl)thio]-N-methylbutanamide] | < 5 | < 5 | 
27 | COc1ccc([S+]([O-])CCCC(=O)N(C)c2nccc3ccccc23)cc1 (stereo not shown) [Example 133, N-isoquinolin-1-yl-4-[(4-methoxyphenyl)sulfinyl]-N-methylbutanamide] | < 5 | < 5 | 
28 | COc1cc(C)ccc1CN(C)C(=O)CCCSc1ccc(O)cc1 [Example 75, 4-[(4-Hydroxyphenyl)thio]-N-(2-methoxy-4-methylbenzyl)-N-methylbutanamide] | < 5 | < 5 | 
29 | CCOc1ccccc1CN(C)C(=O)CCCSc1ccc(O)cc1 [Example 30, N-(2-ethoxybenzyl)-4-[(4-hydroxyphenyl)thio]-N-methylbutanamide] | < 5 | < 5 | 
30 | COc1ccc(SCCCC(=O)N(C)Cc2cc(F)ccc2OC)cc1 [Example 87, N-(5-Fluoro-2-methoxybenzyl)-4-[(4-methoxyphenyl)thio]-N-methylbutanamide] | < 5 | < 5 | 
31 | CCOC(=O)c1cc(F)ccc1SCCCC(=O)N(C)c1cccc(F)c1 [Example 193, Ethyl 5-fluoro-2-({4-[(3-fluorophenyl)(methyl)amino]-4-oxobutyl}thio)benzoate] | < 5 | < 5 | 
32 | CN(Cc1cc(F)cc2c1OCOC2)C(=O)CCCSc1ccc(F)cc1 [Example 96, N-[(6-fluoro-4H-1,3-benzodioxin-8-yl)methyl]-4-[(4-fluorophenyl)thio]-N-methylbutanamide] | < 5 | < 5 | 
33 | CC(C)Oc1ccccc1CN(C)C(=O)CCCSc1ccc(O)cc1 [Example 41, 4-[(4-Hydroxyphenyl)thio]-N-(2-isopropoxybenzyl)-N-methylbutanamide] | < 5 | < 5 | 
34 | COc1ccc(Br)cc1CN(C)C(=O)CCCSc1ccc(F)cc1 [Example 92, N-(5-Bromo-2-methoxybenzyl)-4-[(4-fluorophenyl)thio]-N-methylbutanamide] | < 5 | < 5 | 
35 | CN(Cc1cccc(Cl)c1Cl)C(=O)CCCSc1ccc(O)cc1 [Example 34, N-(2,3-Dichlorobenzyl)-4-[(4-hydroxyphenyl)thio]-N-methylbutanamide] | < 5 | < 5 | 
36 | COc1ccccc1CN(C)C(=O)CCCSc1ccc2ccccc2n1 [Example 39, N-(2-Methoxybenzyl)-N-methyl-4-(quinolin-2-ylthio)butanamide] | < 5 | < 5 | 
37 | CN(Cc1ccccc1N1CCOCC1)C(=O)CCCSc1ccc(O)cc1 [Example 11, 4-[(4-Hydroxyphenyl)thio]-N-methyl-N-(2-morpholin-4-ylbenzyl)butanamide] | < 5 | < 5 | 
38 | COc1ccc(SCCCC(=O)N(C)c2nccc3ccccc23)cc1 [Example 132, N-isoquinolin-1-yl-4-[(4-methoxyphenyl)thio]-N-methylbutanamide] |  | < 5 | < 0.5
39 | COc1ccc(-c2cnc(CCCC(=O)N(C)Cc3cc(F)ccc3OC)o2)cc1 [Example 180, N-(5-Fluoro-2-methoxybenzyl)-4-[5-(4-methoxyphenyl)oxazol-2-yl]-N-methylbutanamide] |  | < 5 | < 0.5
40 | CN(C(=O)CCCn1ccc2cc(F)ccc21)c1cccc2ccccc12 [Example 123, 4-(5-fluoro-1H-indol-1-yl)-N-methyl-N-1-naphthylbutanamide] |  | < 5 | < 0.5
